Data set [1] concerns tumor. The data set is described as follows: Tumor hypoxia/oxygenation after irinotecan detected by photoacoustic imaging. The class given is in vivo.
Data set [2] is described as follows: Photobleaching of BPD in phantom tubes by photoacoustic imaging (fluorescence before/after PAI). The class given is physicochemical. Particulars: fluorescence at 690 nm. On the procedure:
The FDA approved photosensitizer Benzoporphryin derivative (BPD-MA) (Aveline et al., Photochemistry and Photobiology, 59(3):328-35 (1994)) with absorption peaks at […] was used for all PDT experiments. To achieve better depth of light penetration, 690 nm light was used for PDT. PAI was performed at 750 nm and 850 nm wavelength illumination to deduce StO2 from the oxygenated and deoxygenated hemoglobin signal as described by Needles et al. Needles et al., IEEE Trans Ultrason Ferroelectr Freq Control. 60(5):888-97 (2013). At these wavelengths, the absorbance of BPD is minimal (FIG. 5A). PAI was performed using pulsed nanosecond laser (10 nsec pulse width) illumination. […] Fluorescence imaging on the tubes were performed using a Maestro imaging system (CRI Inc.) with an excitation at 405 nm and emission at 690 nm.
Fluorescence imaging: Fluorescence images of two phantom tube (500 um inner diameter) containing phosphate buffered saline (PBS) and liposomal BPD were acquired using a CRi Maestro system. […] Fluorescence images at 690 nm were acquired. A custom Matlab routine was used to quantify fluorescence signals in the tubes. […] Fluorescence image of the tubes were acquired and the tubes were again irradiated with laser of the Vevo LAZR system operating at 690 nm (10 ns pulse width at 10 Hz, 44.5 mJ/cm^2 fluence). […]

Data set [3] deals with subcutaneous U87 tumors. Put plainly: Photoacoustic imaging of tumor StO2 and HbT before and after BPD-PDT. The class given is in vivo, mice. On the procedure:
StO2 and HbT content were measured in both the 1-hr DLI responding group and 3-hr DLI (nonresponders) group of mice (n=6 per group) at 4 time points (before PDT (Pre-PDT), immediately post-PDT, 6-hrs and 24-hrs post-PDT) to determine if PAI could predict treatment response. FIG. 7A and FIG. 7B show representative images of the change in StO2 and HbT content at various time points in a responding and non-responding tumor respectively. Ultrasound imaging identified region of interest (green ROI in FIGS. 7A and 7B is the tumor region). FIG. 7C and FIG. 7D represent the average of StO2 values and HbT values in the tumor ROI from ˜350 B-scans per mouse (6 mice in each group, ˜55-75 B-scans per 3D tumor volume). […] This phenomena is in agreement with the studies by Wang et al. and is attributed to cell death and a decrease in the metabolic consumption of oxygen in the tumor area. Wang et al., Cancer Research, 64(20):7553-61 (2004).
(§1) Animal Model: All animal experiments were approved by the Subcommittee on Research Animal Care of Massachusetts General Hospital. Female athymic Swiss nude mice (Cox, Cambridge, Mass.), 8-10 weeks old, were anesthetized with isoflurane USP (Baxter, Deerfield, Ill.) and inoculated subcutaneously with 3×10^6 U87 cells in 300 μL, of Matrigel (BD Bioscience, San Jose, Calif.). Tumor volumes were measured using calipers by two researchers separately. Tumor volume was calculated using the formula; π/6×Length×Width×Height and photographs of the tumors were obtained.
(§2) PDT Treatment: Mice were injected intravenously with 0.5 mg/kg of BPD-MA, then PDT was performed as follows. Mice were placed under the laser light source and covered with black cloth except tumor area. 1 or 3-hrs post injection, mice were irradiated with 100 J/cm^2 using a 690 nm laser diode source (Model 7401; Intense, North Brunswick, N.J.) at a fluence rate of 100 mW/cm^2 as measured via a VEGA laser power energy meter (Ophir Laser Measurement Group, LLC).
Ultrasound and Photoacoustic Imaging: Image acquisition and quantitation was performed using the ultrasound and photoacoustic imaging system (Vevo LAZR, FUJIFILM VisualSonics, Inc.). Light generated from a tunable laser operating at either 750 nm or 850 nm was delivered through fiber optic bundles integrated into a linear array transducer (LZ-250, 21 MHz). The Oxy-Hemo feature of the Vevo LAZR software was used to acquire the oxygen-saturation images. Mice were imaged under isoflurane. Physiological status (ECG, respiration, and body temperature) of the mice was closely monitored during image acquisition sessions. 3D ultrasound and photoacoustic images were acquired at a step size of 0.152 mm. The Vevo LAZR workstation software was utilized to mark the tumor region of interest and obtain the StO2 and HbT values for every B-scan. The workstation allowed export of the raw data. The raw data is processed using customized MATLAB routines and integrated with 3D visualization software AMIRA to obtain the prediction maps.

Data set [4] relates to subcutaneous U87 tumors. Put plainly: Validation of tumor hypoxia with pimonidazole/CD31 immunofluorescence after BPD-PDT. The class given is in vivo, mice. Particulars: 1-hr DLI (responding group) compared with 3-hr DLI (non-responding) group. The text has this: The inventors next validated the hypoxic conditions observed in photoacoustic images with pimonidazole stain for hypoxia. Gerling et al., Theranostics, 4(6):604-13 (2014). Tumors were sectioned in a similar orientation as the imaging cross-section. CD31 stain was utilized to depict the tumor vasculature while pimonidazole stained the hypoxic regions. In the 1-hr DLI group (FIGS. 8A-4D), Immunofluorescence (IF) images show hypoxia adjacent to the vasculature depicted by the CD31 stain. The hypoxia is due to the vascular damage caused by PDT and disruption of the blood flow in these vessels. Zoomed images of the H&E stain of the adjacent cross section show vascular congestions. […] It is also to be noted that the fluorescence of the pimonidazole stain is stronger in the 1-hr DLI (responding group) tumor than in the 3-hr DLI (non-responding) group given the severe hypoxic conditions created by PDT.
Immunohistochemistry: An overview of the immunofluorescence staining protocol used in this study is published previously by the inventors. […] The slides were washed in PBS and secondary antibody (Donkey Anti-Goat IgG NL493 Affinity Purified PAb (R&D systems Inc) was applied for 2-hrs at room temperature. Finally the slides were washed and sealed with coverslip. A whole slide scanning fluorescence imaging system (Hamamatsu NanoZoomer 2.0-RS) at 40× magnification was used to image the slides.

In data set [5] the test system is subcutaneous U87 tumors. The data set is described as follows: Longitudinal volume monitoring of subcutaneous U87 tumors after BPD-PDT. It is filed as in vivo, mice.
Excerpt: Chen et al., Int J Radiat Oncol Biol Phys., 61(4):1216-26 (2005); Chen et al., Crit Rev Eukaryot Gene Expr., 16(4):279-305 (2006). It was postulated in previous work that at 1-hr the PS localizes to both cellular and vascular compartments of the tumor while at 3-hrs, most of the PS is extra vascular and primarily cellular therefore less likely to impact the tumor oxygenation status. Iinuma et al., Cancer Research, 59(24):6164-70 (1999). […] Amongst the mice that underwent PDT with 1-hr DLI, there was no regrowth for ˜two weeks and at that point 35% of the mice started to show recurrence and an increase in tumor volume (FIG. 6, dashed line), while 65% mice had no palpable tumor 30 days post therapy (FIG. 6, solid line). To test if PAI could monitor the changes in StO2 in the tumor due to PDT, The inventors designated the 1-hr DLI group with a sustained absence of palpable tumors up to 30 days post treatment (FIG. 6, triangles joined by solid line) as the “PDT responding group” and the mice in the 3-hr DLI group (FIG. 6, squares joined by solid line) were considered the “PDT non-responding group”.
as §1, §2

[6] abbreviates: responding 1-hr DLI group, 6-hrs post-PDT.
[7] abbreviates: responding 1-hr DLI group, 24-hrs post-PDT.

Here are results for two compounds from patent US10426388B2, “Prediction of tumor recurrence by measuring oxygen saturation” (THE GENERAL HOSPITAL CORPORATION, priority 2014, dated 2019).

“And” between values parts separate entries of the source, which are not always exact repeats. Equal entries are not always repeated. “Also recorded” adds a separate entry of the source.

For `CCc1c2c(nc3ccc(OC(=O)N4CCC(N5CCCCC5)CC4)cc13)-c1cc3c(c(=O)n1C2)COC(=O)[C@]3(O)CC` [irinotecan], the tumor oxygenation result in data set [1] (after irinotecan treatment, photoacoustic imaging) was “increases tumor oxygenation”. Further, the levels of hypoxia entry in data set [1] (from 1 to 24 hours after treatment) is “steadily increasingly decrease”.
Take “benzoporphyrin derivative monoacid ring-A [BPD]”: the “BPD fluorescence after PAI (photobleaching)” value in data set [2] (PAI at 690 nm) was “significant decrease in the fluorescence; also recorded: reduced fluorescence”. In data set [2] (PAI at 750 nm followed by 850 nm pulsed laser irradiation), the “BPD fluorescence signal after PAI compared to pre-imaging value” was “no significant difference; also recorded: no significant change”. Besides, the “HbT value versus pre-PDT value” in data set [3] (1-hr DLI group, 6-hrs post-PDT) is “significantly higher”. Further, the “StO2 immediately post-PDT versus pre-PDT” value in data set [3] (1-hr DLI group, p<0.001) is given as “increase in oxygenation”. In addition, in data set [3] (3-hr DLI group), the “HbT signal at 6-hrs and 24-hrs post-PDT” value is reported as “no statistical difference”; the “StO2 24-hrs post-PDT versus pre-PDT” value is recorded as “No statistically significant difference”; the “StO2 immediately post-PDT versus pre-PDT” value was “no statistically significant difference”. Moreover, the “change in StO2 compared to pre-PDT StO2 value” in data set [3] (3-hr DLI group, 6-hrs post-PDT) is around 18%. For the same compound, the StO2 in data set [3] (non-responding 3-hr DLI group, 6-hrs post-PDT) is reported as 47.6%±13.4%. Moreover, the StO2 in data set [3] (non-responding 3-hr DLI group, 24-hrs post-PDT) was 55.3%±11.6%. Besides, in data set [3] (setting [6]), the StO2 is 2.97±1.6% and 2.9%±1.6%; the “decrease in StO2 relative to Pre-PDT value” was ~95% and ~94.3%. In data set [3] (setting [7]), the StO2 is given as 8.03%±4.13%; the “decrease in StO2 relative to pre-PDT value” was ~85% and ~84.8%. In addition, the “fluorescence of the pimonidazole stain (hypoxia), 1-hr DLI tumor versus 3-hr DLI tumor” value in data set [4] is “stronger”. For the same compound, in data set [5] (1-hr DLI PDT), the “mice showing recurrence (local tumor recurrence)” value was around 35% and the time without regrowth result is “two weeks”. Besides, in data set [5] (1-hr DLI PDT, 30 days post therapy), the “mice with no palpable tumor” value came to 65%. Also, the “increase in tumor volume” value in data set [5] (3-hr DLI group, three weeks following PDT, 0.5 mg/kg BPD, 100 J/cm^2) is on record as “approximately six-fold”. Also, the “tumor volume difference versus no-treatment group” value in data set [5] (3-hr DLI group, p>0.05, Students t-test) is reported as “no significant difference”.
